# Tested on: corn
# Test: Post-emergence safener action in corn with the herbicide tembotrione
# Assay type: in vivo
# Details: greenhouse, visual scoring of damage
# Excerpt: (§1) The damage to the plants is scored visually using a scale of 0-100%, in comparison to control plants:
# (§2) 0%=no noticeable effect compared to the untreated plant
# (§3) 100%=the treated plants dies.
# (§4) Seeds or rhizome pieces of monocotyledonous and dicotyledonous harmful plants and crop plants are placed in sandy loam soil in plastic pots, covered with soil and cultivated in the greenhouse under good growth conditions. Alternatively, harmful plants encountered in paddy rice cultivation are cultivated in pots in which the surface of the soil is covered by up to 2 cm of water. Three weeks after sowing, the test plants are treated at the three-leaf stage. The herbicide/safener active compound combinations according to the invention, formulated as emulsion concentrates, and in parallel tests the individual active compounds formulated in a corresponding manner, are sprayed at various dosages at a water application rate of […] (converted) onto the green parts of the plants, and, after the test plants were left to stand in the greenhouse for about 2 to 3 weeks under optimum growth conditions, the effect of the preparations is scored visually in comparison to untreated controls. In the case of rice or harmful plants encountered in the cultivation of rice, the active compounds are also added directly to the irrigation water (application analogously to the so-called granule application) or sprayed onto the plants and into the irrigation water. […]
row,SMILES,safener action for the herbicide tembotrione
1,CCCCNC(=O)c1ccc(C(F)(F)F)[nH]c1=O [Compound 6],good safener action
2,COC(=O)CCNC(=O)c1ccc(C(F)(F)F)[nH]c1=O [Compound 75],good safener action
3,CC(C)NC(=O)c1ccc(C(F)(F)Cl)[nH]c1=O [Compound 118],good safener action
4,CC(C)NC(=O)c1ccc(C(F)(F)C(F)F)[nH]c1=O [Compound 1371],good safener action
5,CN(C)C(=O)c1ccc(C(F)(F)C(F)(F)C(F)(F)F)[nH]c1=O [Compound 1604],good safener action
6,CC(C)NC(=O)c1ccc(C(F)(F)C(F)(F)Cl)[nH]c1=O [Compound 1485],good safener action
7,CCCC(C)NC(=O)c1ccc(C(F)(F)F)[nH]c1=O (centres unmarked) [Compound 43],good safener action
8,CC(C)CCNC(=O)c1ccc(C(F)(F)F)[nH]c1=O [Compound 32],good safener action
9,C=CCNC(=O)c1ccc(C(F)(F)C(F)(F)C(F)(F)F)[nH]c1=O [Compound 1629],good safener action
10,CC(C)(C)CNC(=O)c1ccc(C(F)(F)F)[nH]c1=O [Compound 24],good safener action
11,CNC(=O)c1ccc(C(F)(F)C(F)(F)C(F)(F)F)[nH]c1=O [Compound 1596],good safener action
12,CC(C)(C)CNC(=O)c1ccc(C(F)(F)C(F)(F)C(F)(F)F)[nH]c1=O [Compound 1619],good safener action
13,CCC(CC)NC(=O)c1ccc(C(F)(F)C(F)(F)C(F)(F)F)[nH]c1=O [Compound 1646],good safener action
14,O=C(NC1CCC1)c1cc(Br)c(C(F)(F)C(F)(F)C(F)(F)F)[nH]c1=O [Compound 1758],good safener action
15,CCNC(=O)c1cc(Br)c(C(F)F)[nH]c1=O [Compound 1139],good safener action

# Tested on: barley
# Test: Post-emergence safener action in barley with the herbicide mesosulfuron-methyl
# Assay type: in vivo
# Details: greenhouse, visual scoring of damage
# Excerpt: as §1, §2, §3, §4
row,SMILES,safener action for the herbicide mesosulfuron-methyl
1,O=C(NC1CC1)c1ccc(C(F)(F)F)[nH]c1=O [Compound 5],good safener action
2,CCNC(=O)c1ccc(C(F)(F)Cl)[nH]c1=O [Compound 116],good safener action
3,CCNC(=O)c1cc(Cl)c(C(F)(F)Cl)[nH]c1=O [Compound 571],good safener action
4,"CCC(CC)NC(=O)c1cc(I)c(C(F)(F)Cl)[nH]c1=O [Compound 1907, 6-[Chloro(difluoro)methyl]-N-(1-ethylpropyl)-5-iodo-2-oxo-1,2-dihydropyridine-3-carboxamide]",good safener action
5,CCN(CC)C(=O)c1ccc(C(F)(F)Cl)[nH]c1=O [Compound 128],good safener action
6,CCCNC(=O)c1ccc(C(F)(F)Cl)[nH]c1=O [Compound 117],good safener action
7,CNC(=O)c1ccc(C(F)(F)Cl)[nH]c1=O [Compound 115],good safener action
8,CC(C)C(C)NC(=O)c1ccc(C(F)(F)Cl)[nH]c1=O (centres unmarked) [Compound 163],good safener action
9,"O=C(NC1CCC1)c1ccc(C(F)(F)F)[nH]c1=O [Compound 7, N-Cyclobutyl-2-oxo-6-(trifluoromethyl)-1,2-dihydropyridine-3-carboxamide]",good safener action
10,CN(C)C(=O)c1ccc(C(F)(F)Cl)[nH]c1=O [Compound 123],good safener action
11,"CCC(C)NC(=O)c1ccc(C(F)(F)C(F)(F)F)[nH]c1=O (centres unmarked) [Compound 382, N-(1-Methylpropyl)-2-oxo-6-(pentafluoroethyl)-1,2-dihydropyridine-3-carboxamide]",good safener action
12,"NC(=O)c1cc(Cl)c(C(F)(F)F)[nH]c1=O [Compound 455, 5-Chloro-2-oxo-6-(trifluoromethyl)-1,2-dihydropyridine-3-carboxamide]",good safener action
13,CC(C)(C)CNC(=O)c1ccc(C(F)(F)Cl)[nH]c1=O [Compound 138],good safener action
14,COCCNC(=O)c1ccc(C(F)(F)F)[nH]c1=O [Compound 57],good safener action
15,NC(=O)c1cc(Br)c(C(F)(F)Cl)[nH]c1=O [Compound 1023],good safener action
16,C#CCN(C)C(=O)c1ccc(C(F)(F)Cl)[nH]c1=O [Compound 154],good safener action
17,CCCCNC(=O)c1cc(Br)c(C(F)(F)Cl)[nH]c1=O [Compound 1029],good safener action
18,CNC(=O)c1ccc(C(F)(F)F)[nH]c1=O [Compound 1],good safener action
19,"COCCNC(=O)c1ccc(C(F)(F)Cl)[nH]c1=O [Compound 171, 6-[Chloro(difluoro)methyl]-N-(2-methoxyethyl)-2-oxo-1,2-dihydropyridine-3-carboxamide]",good safener action
20,O=C(NC1CCC1)c1cc(Br)c(C(F)(F)Cl)[nH]c1=O [Compound 1030],good safener action
21,CNC(=O)c1cc(Br)c(C(F)(F)F)[nH]c1=O [Compound 910],good safener action
22,CCCCCNC(=O)c1ccc(C(F)(F)Cl)[nH]c1=O [Compound 134],good safener action
23,CC(C)N(C)C(=O)c1ccc(C(F)(F)F)[nH]c1=O [Compound 13],good safener action
24,O=C(NCC(F)(F)C(F)(F)F)c1ccc(C(F)(F)F)[nH]c1=O [Compound 25],good safener action

row,SMILES,safener action for the herbicide mesosulfuron-methyl
1,C#CCN(C)C(=O)c1ccc(C(F)(F)F)[nH]c1=O [Compound 40],good safener action
2,COCCCNC(=O)c1ccc(C(F)(F)C(F)(F)F)[nH]c1=O [Compound 407],good safener action
3,CC(C)CNC(=O)c1ccc(C(F)(F)F)[nH]c1=O [Compound 30],good safener action
4,"NC(=O)c1ccc(C(F)(F)C(F)(F)Cl)[nH]c1=O [Compound 1481, 6-(2-Chloro-1,1,2,2-tetrafluoroethyl)-2-oxo-1,2-dihydropyridine-3-carboxamide]",good safener action
5,O=C(NCC1CC1)c1ccc(C(F)(F)Cl)[nH]c1=O [Compound 136],good safener action
6,O=C(NCC(F)(F)F)c1ccc(C(F)(F)F)[nH]c1=O [Compound 26],good safener action
7,COC(CNC(=O)c1ccc(C(F)(F)Cl)[nH]c1=O)OC [Compound 168],good safener action
8,CCC(CC)NC(=O)c1ccc(C(F)(F)Cl)[nH]c1=O [Compound 165],good safener action
9,"COCC(C)NC(=O)c1cc(Br)c(C(F)F)[nH]c1=O (centres unmarked) [Compound 1201, 5-Bromo-6-(difluoromethyl)-N-(2-methoxy-1-methylethyl)-2-oxo-1,2-dihydropyridine-3-carboxamide]",good safener action
10,COCC(C)NC(=O)c1ccc(C(F)(F)C(F)(F)F)[nH]c1=O (centres unmarked) [Compound 405],good safener action
11,CCN(C(=O)c1ccc(C(F)(F)Cl)[nH]c1=O)C(C)C [Compound 130],good safener action
12,CCCC(C)NC(=O)c1ccc(C(F)(F)Cl)[nH]c1=O (centres unmarked) [Compound 157],good safener action
13,CNC(=O)c1ccc(C(F)(F)C(F)(F)F)[nH]c1=O [Compound 342],good safener action
14,CCCCNC(=O)c1ccc(C(F)(F)C(F)(F)Cl)[nH]c1=O [Compound 1487],good safener action
15,COCCNC(=O)c1ccc(C(F)(F)C(F)(F)F)[nH]c1=O [Compound 398],good safener action
16,CCCC(C)NC(=O)c1ccc(C(F)(F)C(F)(F)F)[nH]c1=O (centres unmarked) [Compound 384],good safener action
17,O=C(NC1CC1)c1ccc(C(F)(F)C(F)(F)F)[nH]c1=O [Compound 346],good safener action
18,CCC(C)NC(=O)c1cc(Br)c(C(F)(F)F)[nH]c1=O (centres unmarked) [Compound 950],good safener action
19,O=C(NCC1CC1)c1ccc(C(F)(F)F)[nH]c1=O [Compound 22],good safener action
20,CCCNC(=O)c1ccc(C(F)(F)F)[nH]c1=O [Compound 3],good safener action
21,O=C(NC1CC1)c1ccc(C(F)(F)Cl)[nH]c1=O [Compound 119],good safener action
22,CCN(C)C(=O)c1ccc(C(F)(F)Cl)[nH]c1=O [Compound 124],good safener action
23,CCCNC(=O)c1ccc(C(F)(F)C(F)(F)F)[nH]c1=O [Compound 344],good safener action

# Reference: patent publication US9102623B2, “Pyridinecarboxamides, useful-plant-protecting composition comprising them and processes for their preparation and their use” (Bayer Cropscience AG, priority 2007, dated 2015)
